Test results as given in US11154569B2, “Ruthenium μ-nitrido complexes and their use as calcium uptake inhibitors” (CORNELL UNIVERSITY, priority 2018, dated 2021).

How the values were obtained:
[1] = molecular target: T1, mitochondrial calcium uniporter (MCU) (Homo sapiens, UniProt Q8NE86); assay: Cytoplasmic and mitochondrial Ca2+ dynamics in intact HeLa cells after histamine; format: cell-based; design: 30 min) and Rhod-2 AM; endogenous in cells; host or cells: HeLa (intact; some experiments with transfected Ca2+ sensors R-GECO1 and GCamP6-mt, MCU itself not transfected); conditions: intact HeLa cells, 50 μM for 30 minutes, histamine 100 μM; Rhod-2 AM and GCamP6-mt
T1 sequence (Q8NE86 51-351): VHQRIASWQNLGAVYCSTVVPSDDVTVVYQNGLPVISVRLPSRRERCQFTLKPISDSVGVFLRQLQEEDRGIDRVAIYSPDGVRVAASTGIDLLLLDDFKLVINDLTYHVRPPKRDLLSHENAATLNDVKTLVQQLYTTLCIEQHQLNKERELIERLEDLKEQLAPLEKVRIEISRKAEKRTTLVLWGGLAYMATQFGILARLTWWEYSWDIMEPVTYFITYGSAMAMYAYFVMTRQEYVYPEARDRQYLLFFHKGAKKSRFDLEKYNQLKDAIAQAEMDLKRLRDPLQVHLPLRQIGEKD
T1 sequence (Q9H4I9 48-107 partner limits assumed): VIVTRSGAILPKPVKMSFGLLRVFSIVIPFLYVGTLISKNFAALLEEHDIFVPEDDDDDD
Experimental: HeLa cells were loaded with Fluo-4-AM (5 μM; 30 min) and Rhod-2 AM (2 μM; 50 min) in extracellular medium as previously described (F. Perocchi et al, Nature 2010, 467, 291-296). Coverslips were mounted in an open perfusion microincubator at 37° C. and imaged. After 1 minute of baseline recording, histamine (100 μM) was added, and confocal images were recorded every 3 seconds at 488 and 561 nm excitation using a 40× oil objective. Images were analyzed and quantified by using ImageJ (NIH).
HeLa cells were transiently transfected with genetically encoded cytosolic and mitochondrial targeted Ca^2+ sensors R-GECO1 and GCamP6-mt plasmids. After 48 hours, the transfected cells were treated with MCU inhibitors (C1, C-2, and C-3; 50 μM). After 1 minute of baseline recording, histamine (100 μM) was added, and the change of R-GECO1 and GCamP6-mt fluorescence was measured with 488-nm and 561-nm excitation on a confocal microscope equipped with a 40× oil objective. Images were analyzed and quantified by using ImageJ (NIH).
Encouraged by the high cell permeability and mitochondrial selectivity of C-2, the capability of this complex to inhibit MCU-mediated mCa^2+ uptake in intact, non-permeabilized cells was investigated Briefly, HeLa cells were loaded with the cytosolic calcium concentration ([Ca^2+]) indicator Fluo-4 AM and the mitochondrial calcium concentration ([…]) indicator Rhod-2 AM in the presence or absence of C-1, C-2, and C-3 (50 μM). Cells were stimulated with the GPCR agonist histamine (100 μM) to rapidly elevate cCa^2+ levels to induce mCa^2+ uptake (Z. Dong et al., Mol. Cell 2017, 65, 1014-1028).
FIGS. 3A and 3B are graphs showing results of cytosolic ([Ca^2+]e, Fluo-4 AM) and mitochondrial ([Ca^2+]m, Rhod-2 AM) calcium transients in HeLa cells after treatment with histamine (100 μM) that were pretreated with or without C-1, C-2, or C-3 (50 μM) for 30 minutes. FIGS. 3C and 3D are graphs showing results of cytosolic ([Ca^2+]e, R-GECO) and mitochondrial ([Ca^2+]m, GCamP6-mt)) calcium transients in HeLa cells after treatment with histamine (100 μM) that were pretreated with or without C-1, C-2, or C-3 (50 μM) for 30 minutes. HeLa cells were co-transfected with R-GECO1 and GCamP6-mt. 48 hours post-transfection. Data are represented as mean±SEM. *p<0.05. n=3-6.

[2] = molecular target: T1, mitochondrial calcium uniporter (MCU); assay: MCU-mediated Ca2+ uptake and ΔΨm in permeabilized HEK293T cells; format: cell-based; design: endogenous in cells; host or cells: HEK293T (digitonin-permeabilized); conditions: 5 μM compound, 20 μM Ca2+ bolus
Experimental: An equal number of IHEK293T (6×10^6 cells) were washed in Ca^2+ free PBS, pH 7.4, resuspended and permeabilized with 40 μg/ml digitonin in 1.5 ml of intracellular medium (ICM) composed of 120 mM KCl, 10 mM NaCl, 1 mM K—H2PO4, 20 mM HE PES-Tris, pH 7.2 and 2 μM thapsigargin to block the SERCA pump. All measurements were performed in the presence of 2 mM succinate. The permeabilized cells were loaded with JC-1 (800 nM) and Fura2-FF (0.5 μM), respectively. Fluorescence was monitored in a multi-wavelength excitation dual-wavelength emission fluorimeter. [Ca^2+]out is represented as the excitation ratio (340 nm/380 nm) of Fura2-FF/FA fluorescence and ΔΨm as the ratio of the fluorescence of J-aggregate (570 nm excitation/595 nm emission) and monomer (490 nm excitation/535 nm emission) forms of JC-1. A series of extra-mitochondrial Ca^2+ bolus (20 μM) was added and mitochondrial uncoupler, CCCP (2 jμM), were added at the indicated time points. All of the experiments were performed at 37° C. with constant stirring.
With the new nitrido-bridged ruthenium compounds C-2 and C-3 prepared, MCU-inhibitory properties of these compounds were evaluated and their activities compared to C-1, the oxo-bridged Ru360 analogue of the conventional art (S. R. Nathan et al., Inorg. Chem. 2017, 56, 3123-3126 and S. R. Nathan et al., J. Vis. Exp. 2017, 56527). The cytotoxicity of the complexes in HEK293 cells was first measured using the colorimetric thiazolyl blue tetrazolium bromide (MTT) assay, as well known in the art. […] To measure the effect of these compounds on MCU activity, permeabilized HEK293T cells were treated with commercially available Ru360, C-1, C-2, or C-3 (5 jμM) 200 seconds prior to the delivery of a 20 μM bolus of Ca^2+ in the presence of 2 mM succinate as an energy source and the sarco/endoplasmic reticulum Ca^2+-ATPase (SERCA) pump blocker thapsigargin to prevent ER Ca^2+ uptake (S. Shanmughapriya et al., Sci. Signal. 2015, 8, ra23).
FIGS. 2A-2C are graphs showing changes in mitochondrial membrane potential (ΔΨm, JC-1, top panel) and extramitochondrial Ca^2+([Ca^2+]out) clearance (Fura-2 FF, bottom panel) in digitonin permeabilized HEK293T cells in response to 20 μM of Ca^2+ after treatment with 5 μM of C-1 (FIG. 2A), C-2 (FIG. 2B), and C-3 (FIG. 2C). The transient drop in ΔΨm in control cells upon Ca^2+ addition indicates accumulation of Ca^2+ in the mitochondrial matrix. FIG. 2D is a graph quantifying the rate of [Ca^2+] uptake as a function of decrease in [Ca^2+]out after a […] Ca^2+ pulse. […] Additionally, ΔΨm was monitored using 5,5′,6,6′-tetrachloro-1,1′,3,3′-tetraethylbenzimidazolylcarbocyanine iodide (JC-1) dye (M. Reen et al., Biochemistry 1991, 30, 4480-4486).
Having identified (C-2 as a cell-permeable MCU inhibitor, a dose-response analysis was performed to determine the potency of C-2 towards mCa^2+ uptake inhibition of C-2 in a permeabilized cell system. Permeabilized IHEK293T cells were treated with C-2 (1 nM to 1 μM). A 20 μM Ca^2+ bolus was added after baseline recording, and the extra-mitochondrial calcium cleared was used as an indicator for MCU-mediated mCa^2+ uptake using Fura-2FF. The results are shown in FIGS. 4A-4C. FIG. 4A includes representative traces of [Ca^2+]out clearance in permeabilized HEK293T cells challenged with a range of C-2 concentrations (1, 2, 3, 5, and 10 nM). FIG. 4B is a graph comparing MCU-inhibitory effect by Ru360 (30 nM) and C-2 (2 and 10 nM) at lower concentrations. FIG. 4C is a graph showing calculation of dose-dependent IC50 inhibition by C-2 and Ru360. Data represent mean±SEM (n=3-6), n.s.=not significant. […] Furthermore, complete inhibition of mCa^2+ uptake was observed when cells were dosed with 10 nM C-2 while 500 nM of Ru360 was required for the same response (FIGS. 4A and 4B).

Q: With “[Ru2(μ-O)(NH3)8(H2O)2]^+5 [C-1, reference compound]” as the substance, how does the “inhibition of MCU-mediated mCa2+ uptake in intact cells” value [1] read?
A: Its value is “did not show appreciable inhibition of mCa^2+ uptake”.

Q: And the “MCU mediated mCa2+ uptake” value ([2]; digitonin permeabilized HEK293T cells)?
A: Its value is “significant reduction in MCU mediated mCa^2+ uptake”.

Q: And the “transient ΔΨm loss (JC-1)” value ([2]; permeabilized HEK293T cells)?
A: The value was “no transient A m loss”.
